Data published in patent publication US11178871B2, “Herbicidal pyrimidine compounds” (BASF SE, priority 2016, dated 2021).

How the values were obtained:
Format in all cases: in vivo
[1] = test system: Echinocloa crus-galli; experiment: greenhouse test, pre-emergence treatment, ECHCG
In short: (§1)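 Damage scored visually on a 0-100 scale (100 = no emergence or complete destruction of aerial parts, 0 = normal growth) after 2 to 4 weeks. Treatment was applied pre-emergence as an aqueous suspension or emulsion immediately after sowing in loamy sand (approx. 3.0% humus).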

[2] = test system: Setaria faberi; experiment: greenhouse test, pre-emergence treatment, SETFA
Source text: (§2) The culture containers used were plastic flowerpots containing loamy sand with approximately 3.0% of humus as the substrate. The seeds of the test plants were sown separately for each species.
(§3) For the pre-emergence treatment, the active ingredients, which had been suspended or emulsified in water, were applied directly after sowing by means of finely distributing nozzles. The containers were irrigated gently to promote germination and growth and subsequently covered with transparent plastic hoods until the plants had rooted. This cover caused uniform germination of the test plants, unless this had been impaired by the active ingredients.
(§4) Depending on the species, the plants were kept at 10-25° C. or 20-35° C., respectively.
(§5) The test period extended over 2 to 4 weeks. During this time, the plants were tended, and their response to the individual treatments was evaluated.
(§6) Evaluation was carried out using a scale from 0 to 100. 100 means no emergence of the plants, or complete destruction of at least the aerial moieties, and 0 means no damage, or normal course of growth. A good herbicidal activity is given at values of at least 70 and a very good herbicidal activity is given at values of at least 85.
(§7) The plants used in the greenhouse experiments were of the following species: […]

[3] = test system: Agrostis stolonifera; experiment: greenhouse test, pre-emergence treatment, AGSST; conditions: 2000 g/ha
Source text: as §2, §3, §4, §5, §6, §7

[4] = test system: Alopecurus myosuroides; experiment: greenhouse test, post-emergence treatment, ALOMY; conditions: post-emergence
In short: (§8)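 Post-emergence greenhouse herbicide test: plants at 3–15 cm sprayed with aqueous formulation of compound, then evaluated on a 0–100 damage scale after 2–4 weeks.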

[5] = test system: Avena fatua; experiment: greenhouse test, post-emergence treatment, AVEFA
In short: as §8

[6] = test system: Lolium multiflorum; experiment: greenhouse test, post-emergence treatment, LOLMU
Source text: as §2
(§9) For the post-emergence treatment, the test plants were first grown to a height of 3 to 15 cm, depending on the plant habit, and only then treated with the active ingredients which had been suspended or emulsified in water. For this purpose, the test plants were either sown directly and grown in the same containers, or they were first grown separately as seedlings and transplanted into the test containers a few days prior to treatment.
as §4, §5, §6, §7

[7] = test system: Apera spica-venti; experiment: greenhouse test, pre-emergence treatment, APESV
In short: as §1

[8] = test system: Poa annua; experiment: greenhouse test, pre-emergence treatment, POAAN
Source text: as §2, §3, §4, §5, §6, §7

[9] = test system: Echinocloa crus-galli; experiment: greenhouse test, post-emergence treatment, ECHCG; conditions: post-emergence
In short: as §8

[10] = test system: Poa annua; experiment: greenhouse test, post-emergence treatment, POAAN
Source text: as §2, §9, §4, §5, §6, §7

[11] = test system: Polygonum convolvulus; experiment: greenhouse test, post-emergence treatment, POLCO; conditions: 500 g/ha
Source text: as §2, §9, §4, §5, §6, §7

[12] = test system: Abutilon theophrasti; experiment: greenhouse test, post-emergence treatment, ABUTH
In short: as §8

[13] = test system: Amaranthus retroflexus; experiment: greenhouse test, post-emergence treatment, AMARE
In short: as §8

[14] = test system: Matricaria inodora; experiment: greenhouse test, post-emergence treatment, MATIN; conditions: 2000 g/ha
Source text: as §2, §9, §4, §5, §6, §7

[15] = test system: Amaranthus retroflexus; experiment: greenhouse test, pre-emergence treatment, AMARE
Source text: as §2, §3, §4, §5, §6, §7

[16] = test system: Setaria viridis; experiment: greenhouse test, post-emergence treatment, SETVI; conditions: 1000 g/ha
In short: as §8

Cc1nc(C2CC2)ncc1-c1ccccc1C(F)(F)F [Ex. 17]
herbicidal activity ([1]; 2000 g/ha): very good (a very good herbicidal activity is given at values of at least 85) | herbicidal activity ([2]; 2000 g/ha): very good (a very good herbicidal activity is given at values of at least 85) | herbicidal activity [3]: very good (a very good herbicidal activity is given at values of at least 85)

Cc1nc(C)c(-c2nc(C3CC3)ncc2-c2cc(C(F)F)ccc2Cl)o1 [Ex. 291]
herbicidal activity ([4]; 500 g/ha): good (A good herbicidal activity is given at values of at least 70) | herbicidal activity ([5]; 500 g/ha): good (A good herbicidal activity is given at values of at least 70) | herbicidal activity ([6]; 500 g/ha): good (A good herbicidal activity is given at values of at least 70) | herbicidal activity ([7]; 500 g/ha): very good (a very good herbicidal activity is given at values of at least 85) | herbicidal activity ([1]; 500 g/ha): very good (a very good herbicidal activity is given at values of at least 85) | herbicidal activity ([8]; 500 g/ha): very good (a very good herbicidal activity is given at values of at least 85)

Cc1cocc1-c1nc(C2CC2)ncc1-c1ccccc1Br [Ex. 269]
herbicidal activity ([9]; 1000 g/ha): very good (a very good herbicidal activity is given at values of at least 85) | herbicidal activity ([2]; 1000 g/ha): very good (a very good herbicidal activity is given at values of at least 85)

Cc1ncc(-c2nc(C3CC3)ncc2-c2ccccc2Cl)o1 [Ex. 244]
herbicidal activity ([4]; 500 g/ha): good (A good herbicidal activity is given at values of at least 70) | herbicidal activity ([10]; 500 g/ha): good (A good herbicidal activity is given at values of at least 70) | herbicidal activity [11]: good (A good herbicidal activity is given at values of at least 70) | herbicidal activity ([7]; 500 g/ha): very good (a very good herbicidal activity is given at values of at least 85) | herbicidal activity ([1]; 500 g/ha): very good (a very good herbicidal activity is given at values of at least 85) | herbicidal activity ([8]; 500 g/ha): very good (a very good herbicidal activity is given at values of at least 85)

Cc1ocnc1-c1nc(C2CC2)ncc1-c1ccccc1Cl [Ex. 267]
herbicidal activity ([12]; 2000 g/ha): very good (a very good herbicidal activity is given at values of at least 85) | herbicidal activity ([9]; 2000 g/ha): very good (a very good herbicidal activity is given at values of at least 85) | herbicidal activity ([10]; 2000 g/ha): very good (a very good herbicidal activity is given at values of at least 85) | herbicidal activity ([1]; 2000 g/ha): very good (a very good herbicidal activity is given at values of at least 85) | herbicidal activity ([8]; 2000 g/ha): very good (a very good herbicidal activity is given at values of at least 85)

OC(c1nc(Cl)ccc1Cl)C(O)c1nc(C2CC2)ncc1-c1ccccc1Cl (stereo not shown) [Ex. 259]
herbicidal activity ([4]; 2000 g/ha): very good (a very good herbicidal activity is given at values of at least 85) | herbicidal activity ([9]; 2000 g/ha): very good (a very good herbicidal activity is given at values of at least 85) | herbicidal activity ([10]; 2000 g/ha): very good (a very good herbicidal activity is given at values of at least 85) | herbicidal activity ([7]; 2000 g/ha): good (A good herbicidal activity is given at values of at least 70) | herbicidal activity ([1]; 2000 g/ha): good (A good herbicidal activity is given at values of at least 70)

Clc1ccccc1-c1cnc(C2CC2)nc1C(Br)Br [Ex. 35]
herbicidal activity ([4]; 2000 g/ha): very good (a very good herbicidal activity is given at values of at least 85) | herbicidal activity ([13]; 2000 g/ha): very good (a very good herbicidal activity is given at values of at least 85) | herbicidal activity ([9]; 2000 g/ha): very good (a very good herbicidal activity is given at values of at least 85) | herbicidal activity ([7]; 2000 g/ha): very good (a very good herbicidal activity is given at values of at least 85) | herbicidal activity ([1]; 2000 g/ha): very good (a very good herbicidal activity is given at values of at least 85) | herbicidal activity [3]: very good (a very good herbicidal activity is given at values of at least 85)

Clc1ccccc1-c1cnc(C2CC2)nc1-c1ccnnc1 [Ex. 234]
herbicidal activity ([10]; 2000 g/ha): good (A good herbicidal activity is given at values of at least 70) | herbicidal activity ([7]; 2000 g/ha): very good (a very good herbicidal activity is given at values of at least 85)

Brc1ccccc1-c1cnc(C2CC2)nc1C(Br)Br [Ex. 27]
herbicidal activity ([4]; 2000 g/ha): very good (a very good herbicidal activity is given at values of at least 85) | herbicidal activity ([13]; 2000 g/ha): very good (a very good herbicidal activity is given at values of at least 85) | herbicidal activity ([9]; 2000 g/ha): very good (a very good herbicidal activity is given at values of at least 85) | herbicidal activity ([7]; 2000 g/ha): very good (a very good herbicidal activity is given at values of at least 85) | herbicidal activity ([1]; 2000 g/ha): very good (a very good herbicidal activity is given at values of at least 85) | herbicidal activity [3]: very good (a very good herbicidal activity is given at values of at least 85)

N#CC(C#N)c1nc(C2CC2)ncc1-c1ccccc1Br [Ex. 25]
herbicidal activity [14]: very good (a very good herbicidal activity is given at values of at least 85) | herbicidal activity ([8]; 2000 g/ha): very good (a very good herbicidal activity is given at values of at least 85) | herbicidal activity [3]: very good (a very good herbicidal activity is given at values of at least 85)

Cc1noc(-c2nc(C3CC3)ncc2-c2ccccc2Cl)n1 [Ex. 295]
herbicidal activity ([4]; 2000 g/ha): very good (a very good herbicidal activity is given at values of at least 85) | herbicidal activity ([5]; 2000 g/ha): very good (a very good herbicidal activity is given at values of at least 85) | herbicidal activity ([15]; 2000 g/ha): very good (a very good herbicidal activity is given at values of at least 85) | herbicidal activity ([7]; 2000 g/ha): very good (a very good herbicidal activity is given at values of at least 85) | herbicidal activity ([1]; 2000 g/ha): very good (a very good herbicidal activity is given at values of at least 85)

CCc1ncoc1-c1nc(C2CC2)ncc1-c1ccccc1Cl [Ex. 286]
herbicidal activity ([12]; 1000 g/ha): very good (a very good herbicidal activity is given at values of at least 85) | herbicidal activity ([13]; 1000 g/ha): very good (a very good herbicidal activity is given at values of at least 85) | herbicidal activity ([9]; 1000 g/ha): very good (a very good herbicidal activity is given at values of at least 85) | herbicidal activity ([15]; 1000 g/ha): very good (a very good herbicidal activity is given at values of at least 85) | herbicidal activity ([7]; 1000 g/ha): very good (a very good herbicidal activity is given at values of at least 85) | herbicidal activity ([1]; 1000 g/ha): very good (a very good herbicidal activity is given at values of at least 85)

COCC(=Cc1nc(C2CC2)ncc1-c1ccccc1Cl)COC [Ex. 293]
herbicidal activity ([12]; 1000 g/ha): good (A good herbicidal activity is given at values of at least 70) | herbicidal activity ([1]; 1000 g/ha): good (A good herbicidal activity is given at values of at least 70) | herbicidal activity ([2]; 1000 g/ha): very good (a very good herbicidal activity is given at values of at least 85)

Clc1ccccc1-c1cnc(C2CC2)nc1C1CCOC1 (stereo not shown) [Ex. 59]
herbicidal activity ([9]; 1000 g/ha): good (A good herbicidal activity is given at values of at least 70) | herbicidal activity [16]: very good (a very good herbicidal activity is given at values of at least 85) | herbicidal activity ([1]; 1000 g/ha): very good (a very good herbicidal activity is given at values of at least 85) | herbicidal activity ([2]; 1000 g/ha): good (A good herbicidal activity is given at values of at least 70)

O=[N+]([O-])c1ccccc1-c1cnc(C2CC2)nc1-c1ccco1 [Ex. 37]
herbicidal activity ([2]; 2000 g/ha): good (A good herbicidal activity is given at values of at least 70)

OCc1nc(C2CC2)ncc1-c1cc(F)ccc1Cl [Ex. 14]
herbicidal activity ([6]; 250 g/ha): good (A good herbicidal activity is given at values of at least 70) | herbicidal activity ([7]; 250 g/ha): very good (a very good herbicidal activity is given at values of at least 85)

N#CC(C#N)c1nc(C2CC2)ncc1-c1ccc(F)cc1Br [Ex. 36]
herbicidal activity [14]: very good (a very good herbicidal activity is given at values of at least 85) | herbicidal activity ([8]; 2000 g/ha): very good (a very good herbicidal activity is given at values of at least 85) | herbicidal activity [3]: very good (a very good herbicidal activity is given at values of at least 85)

Fc1ccc(-c2nc(C3CC3)ncc2-c2ccccc2Cl)cc1 [Ex. 11]
herbicidal activity ([1]; 2000 g/ha): good (A good herbicidal activity is given at values of at least 70) | herbicidal activity ([2]; 2000 g/ha): very good (a very good herbicidal activity is given at values of at least 85)
